Values joined by “and” are separate entries in the source; they are usually repeats but may differ in a detail not shown here. Equal values may be shown once. “Also recorded” adds a separate entry of the source.
How the values were obtained:
[1] = test system: RGC axons in the optic nerve; experiment: Optic nerve axon regeneration after optic nerve crush, GAP-43-positive axons distal to the crush site; format: in vivo, mouse; settings: for effect on axon regeneration: intraocular injection, days 0 and 4 after ONC; for effect on axon regeneration / most effective concentration for axon regeneration: evaluated at 2 weeks; for maximally effective concentration for axon regeneration (unit not given): FIG. 4 / FIG. 7, 2 weeks after optic nerve injury, multiple injections; for added effect of pre-treatment (additional injection one day before ONC) on axon regeneration: compared with 2 post-injury injections; for most effective concentration for axon regeneration: intraocular injection immediately after optic nerve crush and 4 days later; for axon regeneration in combination with pten gene deletion: pten deleted in RGCs by AAV2-Cre, 2 weeks
Method: (§1) Studies were performed at Children's Hospital Boston with the approval of the Institutional Animal Care and Use Committee. Experiments used male mice of the strain C57BL/6J (Jackson lab, Bar Harbor, Me.), at 8- to 10-week-old age.
(§2) Adult mice were anesthetized with a combination of ketamine and xylazine given intraperitoneally. A conjunctival incision was made over the dorsal aspect of one eye, which is then gently rotated downward in the orbit. The orbital muscles were slightly separated to expose the optic nerve at its exit from the globe, which were then crushed for 5 seconds with jewelers' forceps (Dumont number 5) near the back of the eye (within 0.5 mm). […] Same volume PBS was injected intravitreally in control group.
(§3) Mice were sacrificed with an overdose of anesthesia 14 d after optic nerve injury and were perfused with saline and 4% paraformaldehyde (PFA). […]. Optic nerves and eyes were dissected and postfixed in PFA. Nerves were impregnated with 30% sucrose, embedded in OCT Tissue Tek Medium (Sakura Finetek), frozen, cut in the longitudinal plane at 14 μm, and mounted on coated slides. Regenerating axons were visualized by staining with a sheep antibody to GAP-43 followed by a fluorescently labeled secondary antibody.
Axon growth was quantified by counting the number of GAP-43-positive axons extending 0.5, 1, 1.5 and 2 mm from the end of the crush site in at least eight sections per case. The cross-sectional width of the nerve was measured at the point at which the counts were taken and was used to calculate the number of axons per millimeter of nerve width. The number of axons per millimeter was then averaged over the number of sections. Σad, the total number of axons extending distance din a nerve having a radius of r, was estimated by summing over all sections having a thickness t (14 μm):
Σad=πr^2×[average axons/mm]/t

[2] = test system: retinal ganglion cells (RGC); experiment: RGC survival after optic nerve crush, βIII-tubulin-stained retinal whole mounts; format: in vivo, mouse; settings: for RGC survival when chelator given only on Day 3: single administration 3 d after ONC
Method: as §1, §2, §3
Images of eight preselected areas, 2 mm from the optic disc were captured under fluorescent illumination (400×; E800; Nikon). βIII-Tubulin-positive cells were counted using NIH ImageJ software (Wayne Rasband, National Institutes of Health, Bethesda, Md.). Cell densities were averaged across all eight areas.

[3] = test system: porcine liver esterase (PLE); experiment: Enzymatic cleavage by esterase followed by UV/vis; format: in vitro ADME; settings: 25% MeOH/PBS at 37° C., 0.2 unit/ml porcine liver esterase
Method: A) change of UV/vis spectrum of 3 in 25% MeOH/PBS upon addition of esterase at 37° C. The final spectrum matched the spectrum of ZX1 (B). A) Insert: the decrease of absorbance at 340 nm.
The AcOTFMB sulfonate ester, 1, was synthesized with 88% yield by esterifying 2-nitrobenzenesulfonyl chloride with the corresponding alcohol in the presence of DABCO as the base. Reduction of the nitro functionality with hydrogen afforded the aniline, 2, with 99% yield. The dipicolylamine (DPA) zinc-binding unit can be installed to the aniline via reduction amination to afford the target molecule, 3, in 10% yield (Scheme 1). […] In 25% MeOH/PBS at 37° C., upon introduction of 0.2 unit/ml porcine liver esterase (PLE), The UV/vis spectrum gradually changes with an isosbestic point of 317 nm, to produce a peak at 307 nm (FIG. 10).

[4] = Hydrolytic stability of the sulfonate ester at pH 7; format: physicochemical
[5] = test system: free Zn^2+ in the inner plexiform layer of the retina; experiment: Free Zn2+ in the retina after optic nerve injury by autometallography (AMG); format: in vivo, mouse; settings: chelator injected intraocularly
Method: A) and B) Mice underwent unilateral optic nerve injury and received i.p. injections of sodium selenite immediately afterwards. Levels of free Zn^2+ increase within 6 hours. C) and D) TPEN (100 μM injections starting 1 day before nerve injury) suppresses the increase in free Zn^2+. The temporal resolution of this method is limited by the time delay for TPEN to reach the retina.
We investigated the hypothesis that the liberation of free Zn2+ plays a role in RGC death after axonal injury.
To investigate the possible relationship between ionic Zn^2+ and nerve regeneration, we used autometallography (AMG) to examine changes in the retina, injecting Na2SeO3 i.p. at various times after ONC and euthanizing mice 6 hr later. We detected a dramatic increase in labeling in the IPL, the layer of the retina that contains synaptic inputs from retinal interneurons onto RGC dendrites, especially in 2 sublayers (FIG. 11B). IPL labeling in-creased up to 24 hr but declined by 3 days, at which time labeling appeared in RGCs themselves. […] This interpretation is supported by studies using a membrane-permeable fluorescent Zn^2+ sensor, Zinpyr1, which has a strong preference for Zn^2+ over Ca^2+ (41). […] As with AMG, Zinpyr1 labeling was elevated in RGCs but not IPL at 3 days (FIG. 11K). The Zn^2+ transporter ZnT3 is also localized in the IPL (FIG. 11L).

Caspase-3 = Caspase-3 immunostaining of retinal cross-sections 5 days after optic nerve crush; format: in vivo, mouse
Description: (§4) FIG. 6A-FIG. 6C show results from experiments that indicate Chelation of free Zn^2+ suppresses molecular changes that lead to RGC apoptosis. A) Cross-sections through the normal retina or 5 days after optic nerve crush, with or without treatment with the Zn^2+ chelator TPEN. Sections were immunostained to detect the anti-apoptotic protein Bcl-xL or the pro-apoptotic enzymes Caspase-3 or -8. B) C) Quantitation of cellular changes (avg. number of stained cells per section). Optic nerve injury causes a marked elevation of Caspases-3 and -8. […] BclxL levels have not been quantified yet, but appear to decrease with optic nerve injury and to be partially preserved by TPEN treatment. gcl: ganglion cell layer; ipl, inner plexiform layer; ink inner nuclear layer.
(§5) Retinal cross-sections from normal mice or 5 days after optic nerve crush, with or without TPEN treatment. Sections were immunostained for the anti-apoptotic protein Bcl-xL or the pro-apoptotic enzymes Caspase-3 or -8. Optic nerve injury causes a marked elevation of Caspases-3 and -8 and a decline in Bcl-xL. TPEN diminishes the expression of Caspases-3 and -8 and attenuates the decline in Bcl-xL gcl: ganglion cell layer; ipl, inner plexiform layer; inl, inner nuclear layer.

Bcl-xL = Bcl-xL immunostaining of retinal cross-sections 5 days after optic nerve crush; format: in vivo, mouse
Description: as §4, §5

Adult rat RGCs = experiment: Axon outgrowth in cultured adult RGCs in defined media; format: cell-based; settings: ZX1 10 μM; with or without forskolin, mannose, oncomodulin
[6] = injected into the eye just after ONC and again after 4 days

In the case of `O=C(O)CN(CCN(CC(=O)O)CC(=O)O)CC(=O)O.[Ca]` [CaEDTA], the “effect on axon regeneration” value [1] is reported as “led to axon outgrowth”, the “effect on RGC survival 2 weeks after ONC” value [2, 6] is reported as “doubled” and the “effect on RGC survival 2 weeks after ONC” value ([2]; injected into the eye just after ONC and again after 4 days, listed as Ca-EDTA) is reported as “promotes cell survival”.
For `CC(=O)Oc1ccc(C(OS(=O)(=O)c2ccccc2NCCN(Cc2ccccn2)Cc2ccccn2)C(F)(F)F)cc1` (stereo not shown) [compound 3, 4-(1-(((2-((2-(bis(pyridin-2-ylmethyl)amino)ethyl)amino)phenyl)sulfonyl)oxy)-2,2,2-trifluoroethyl)phenyl acetate], the “susceptibility to esterase cleavage” value [3] was “susceptible to enzymatic cleavage to afford ZX1” and the stability toward hydrolysis [4] was “stable at pH 7 for several days without being hydrolyzed”.
With `c1ccc(CN(CCN(Cc2ccccn2)Cc2ccccn2)Cc2ccccn2)nc1` [TPEN, N,N,N′,N′-tetrakis(2-pyridylmethyl)ethylenediamine] the “free Zn2+ level / AMG labeling in the retina after optic nerve injury” value [5] was “diminishes Zn2+ levels; also recorded: blocked injury-induced labeling in the IPL”, the “injury-induced increase in Caspase-3” value (Caspase-3) was “suppressed; also recorded: diminishes the number of Caspase-3 positive cells” and the “maximally effective concentration for axon regeneration (unit not given)” value ([1]; in µM) was 100-500. For the same molecule, the “added effect of pre-treatment (additional injection one day before ONC) on axon regeneration” value [1] was “markedly increased the number of regenerating axons; also recorded: augmented the amount of regeneration”, the “most effective concentration for axon regeneration” value [1] was 100 µM and the “effect on axon regeneration” value [1] was “led to axon outgrowth”. For the same molecule, the “axon regeneration in combination with pten gene deletion” value [1] was “much greater effects on regeneration than either one alone; also recorded: double”, the “axon regeneration when injected on D3” value ([1]; single administration 3 d after ONC) was “did not promote regeneration” and the “added effect of pre-treatment (additional injection one day before ONC) on RGC survival” value ([2]; compared with injections on day 0 and day 4 only) was “not augmented; also recorded: did not enhance RGC survival”. The “effect on RGC survival 2 weeks after ONC” value [2, 6] was “protected RGCs”, the “most effective concentration for RGC survival” value ([2]; intraocular, day 0 and day 4 after optic nerve crush, survival at 2 weeks) was 100 µM and the “RGC survival in combination with pten gene deletion” value ([2]; pten deleted in RGCs by AAV2-Cre, 2 weeks) was “no additional effect”. The “RGC survival when chelator given only on Day 3” value [2] was “fully protective”, the “long-lasting RGC survival” value ([2]; up to 12 wk after ONC) was “enduring protection” and the “injury-induced decrease in Bcl-xL” value (Bcl-xL) was “suppressed; also recorded: partially blocks Bcl-xL loss after ONC”.
For `O=C(O)CN(CCN(CC(=O)O)CC(=O)O)CC(=O)O.[Zn]` [ZnEDTA], the “effect on axon regeneration” value [1] was “not” and the “effect on RGC survival 2 weeks after ONC” value ([2]; mouse, in vivo) was “not”.
For `CC[N+](CC)(CC)CC` [TEA, tetraethylammonium], the “RGC survival after optic nerve injury with K+ channel blockers” value (“RGC survival after optic nerve injury” below) ([2]; FIG. 16) was “blocks RGC death after ONC to the same extent as TPEN; also recorded: strong effect” and the “concentration affording strong protection of RGCs” value ([2]; mouse, in vivo) was < 100 µM and 100 µM.
For `O=S(=O)(O)c1ccccc1NCCN(Cc1ccccn1)Cc1ccccn1` [ZX1], the “free Zn2+ level / AMG labeling in the retina after optic nerve injury” value [5] was “blocked injury-induced labeling in the IPL”, the “axon outgrowth of cultured RGCs” value (Adult rat RGCs) was “no effect” and the “GAP-43-positive axons at 0.5 mm from crush site” value ([1]; 2 weeks after crush, ZX1 10 μM˜10 mM injection, crush alone 7.05±2.49 axons) was “up to 164 axons”. The maximally effective concentration for axon regeneration (unit not given) [1] was 30 µM, the “added effect of pre-treatment (additional injection one day before ONC) on axon regeneration” value [1] was “augmented the amount of regeneration” and the “most effective concentration for axon regeneration” value [1] was 100 µM. For the same molecule, the “effect on axon regeneration” value [1] was “induces extensive regeneration; also recorded: similarly effective in inducing regeneration”, the “axon regeneration when added to Zymosan + cAMP alone” value ([1]; long-term, FIG. 18) was “increases the effect of Zymosan+ cAMP alone” and the “axon regeneration when added to Zymosan, elevation of cAMP and pten gene deletion” value ([1]; long-term, examined 12 weeks after chelator) was “nearly doubles the amount of regeneration seen at short distances from the injury site”. For the same molecule, the “axon regeneration in combination with pten gene deletion” value [1] was “double”, the “dose dependence of RGC survival” value ([2]; ZX1 between 10 μM and 10 mM) was “roughly equally effective in promoting cell survival; also recorded: equally protective against RGC death at all concentrations from 10 μM up” and the “effect on RGC survival 2 weeks after ONC” value [2, 6] was “just as effective as TPEN; also recorded: doubled”. The “RGC survival when chelator given only on Day 3” value [2] was “less effective”.
In the case of “Agitoxin-2: blocker of Shaker family K+ channels Kv1.1 and 1.3”, the “RGC survival after optic nerve injury” value ([2]; FIG. 16) is reported as “only a small effect on RGC survival”, the “RGC survival in combination with TPEN” value ([2]; FIG. 16) is reported as “does not augment the effect of TPEN” and the “RGC survival after optic nerve injury” value ([2]; FIG. 16, listed as AgTx2) is reported as “slightly improves RGC survival”.
